Measured values reported in paper PMC9544254 (Clinical and Experimental Allergy, 2022).

Experiments:
Tryptase = experiment: isolated enzyme kinetic fluorogenic substrate IC50 assay; assay type: biochemical, human; details: 5 min pre‐incubation
Experimental: (§3) Protease inhibition was measured by monitoring the rate of fluorescence generation at a fixed substrate concentration over a range of inhibitor concentrations. […] To estimate the IC50, a 4‐parameter logistic dose‐response curve was fitted to the normalized rate of fluorescence increase.

PKa [1] = molecular target: T1, PKa (Homo sapiens, UniProt P03952); experiment: phase 1: DXS‐stimulated PKa activity in plasma after oral KVD900; assay type: in vivo; details: healthy male volunteers, 600 mg oral powder in capsule, read-out: inhibition of DXS‐stimulated PKa activity compared with pre‐dose
T1 construct: host or cells: human pooled plasma, stimulated with dextran sulphate
T1 sequence (P03952 391-638 limits assumed): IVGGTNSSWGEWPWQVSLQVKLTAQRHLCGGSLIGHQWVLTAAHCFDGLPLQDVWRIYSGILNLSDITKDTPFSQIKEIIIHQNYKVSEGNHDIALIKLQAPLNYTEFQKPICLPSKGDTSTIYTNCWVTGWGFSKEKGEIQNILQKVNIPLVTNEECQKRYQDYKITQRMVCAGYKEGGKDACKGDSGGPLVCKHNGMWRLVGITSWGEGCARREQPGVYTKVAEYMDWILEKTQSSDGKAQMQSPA
T1 sequence (P03952 20-390 partner limits assumed): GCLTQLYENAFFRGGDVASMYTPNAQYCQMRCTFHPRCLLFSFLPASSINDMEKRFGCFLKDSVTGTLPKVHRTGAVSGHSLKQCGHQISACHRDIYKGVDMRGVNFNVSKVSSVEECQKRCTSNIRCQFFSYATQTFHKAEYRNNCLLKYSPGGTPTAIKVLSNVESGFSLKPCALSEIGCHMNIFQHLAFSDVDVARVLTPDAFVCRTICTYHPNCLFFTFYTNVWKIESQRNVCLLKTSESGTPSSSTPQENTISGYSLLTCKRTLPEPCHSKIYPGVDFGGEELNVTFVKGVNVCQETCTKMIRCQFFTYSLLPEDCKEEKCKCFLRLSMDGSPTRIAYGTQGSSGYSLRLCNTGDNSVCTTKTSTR
Experimental: PKa enzyme activity was measured in human pooled plasma (control plasma, Affinity Biologicals) using H‐D‐Pro‐Phe‐Arg‐AFC. The KKS in plasma was stimulated by the addition of dextran sulphate 500 kDa (DXS; Sigma‐Aldrich). PKa activity in the plasma was estimated based on the maximum rate of fluorescence increase. […] Plasma samples were stimulated with 6.25 or 10 µg/ml DXS and PKa enzyme activity was measured as described above. Percent plasma protein binding (PPB %) was determined using Rapid Equilibrium Dialysis (Pierce RED technology, ThermoFisher Scientific). Compounds were spiked into control plasma (final concentration 5 μM) and dialysed against phosphate buffer (pH 7.4) for 5 h at 37°C. Samples were analysed using liquid chromatography‐tandem mass spectrometry to quantify the fraction of unbound compound.
(§1) Participants with HAE were within their intercritical period. Blood samples were collected into 3.2% sodium citrate, centrifuged at 1500 g for 10 min at 4°C, and plasma was stored at −80°C until analysis. Additional information on these trials can be found elsewhere (NCT04349800 and NCT04208412, available at https://clinicaltrials.gov).

PKa‐mediated HK cleavage = experiment: capillary‐based immunoassay of DXS‐stimulated HK cleavage in control plasma; assay type: biochemical, human; details: for DXS‐stimulated generation of cHK: 6.25 µg/ml DXS
Experimental: (§2) Undiluted plasma samples obtained at pre‐dose and post‐dose from healthy controls and HAE patients from clinical trials with KVD900, described below, were stimulated with DXS, as described above. Reactions were stopped by rapidly heating samples to 95°C for 10 min in Laemmli buffer containing β‐mercaptoethanol. Components of the KKS in plasma samples (diluted 1:20) were separated by capillary electrophoresis using 12–230 kDa separation modules in the Protein Simple WES^TM system (ProteinSimple). Proteins were detected by immunoassay and quantified from peak areas corresponding to chemiluminescence intensities using Compass for Simple Western software (Version 4.0.0, ProteinSimple) and visualized as virtual blots generated from capillary electropherograms as previously described.[18] Standard curves were generated to estimate protein concentrations in plasma using known quantities of purified HK, plasma prekallikrein (PK), FXII and FXIIa (Enzyme Research Laboratories), spiked into HK (Affinity Biologicals), PK (Affinity Biologicals) and FXII (Technoclone) deficient plasma respectively. Immunodetection was performed using primary antibodies for PK (clone 13G11) (Invitrogen), HK and cHK: KNG17A12 Antibody (Molecular Innovations), FXII and FXIIa: FXII20B2 antibody (Molecular Innovations) and horseradish peroxidase‐conjugated secondary antibody. The anti‐HK light chain antibody used detected HK and two cHK bands. The total cHK was quantified by taking the sum of the peak areas for both cHK bands.

FVIIa = FVIIa (Homo sapiens, UniProt P08709); experiment: isolated enzyme kinetic fluorogenic substrate IC50 assay; assay type: biochemical; details: 5 min pre‐incubation
Sequence of FVIIa (P08709 213-466 limits assumed): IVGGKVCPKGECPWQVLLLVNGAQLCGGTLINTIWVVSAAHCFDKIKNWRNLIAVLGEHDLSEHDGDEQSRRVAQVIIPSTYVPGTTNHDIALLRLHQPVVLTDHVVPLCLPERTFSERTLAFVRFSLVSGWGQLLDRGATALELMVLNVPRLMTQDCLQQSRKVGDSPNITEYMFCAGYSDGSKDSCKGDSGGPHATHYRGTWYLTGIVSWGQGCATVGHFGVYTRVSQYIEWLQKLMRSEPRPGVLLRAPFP
Sequence of FVIIa (P08709 61-212 partner limits assumed): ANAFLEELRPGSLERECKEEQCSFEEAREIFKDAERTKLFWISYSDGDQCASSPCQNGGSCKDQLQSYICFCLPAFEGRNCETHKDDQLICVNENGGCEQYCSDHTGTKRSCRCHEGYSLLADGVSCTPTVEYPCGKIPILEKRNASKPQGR
Experimental: as §3

[2] = phase 2: plasma concentrations of KVD900 in HAE subjects; assay type: in vivo; details: both sexes, human, HAE Type 1 and Type 2 subjects, 600 mg oral tablets, arithmetic mean, n = 42
Experimental: as §1

HK cleavage [3] = experiment: phase 1: capillary immunoassay of HK and cHK in DXS‐stimulated plasma after oral KVD900; assay type: in vivo, human; details: 600 mg oral
Experimental: as §2, §1

Cathepsin D = Cathepsin D (Homo sapiens, UniProt P07339); experiment: isolated enzyme kinetic fluorogenic substrate IC50 assay; assay type: biochemical; details: 5 min pre‐incubation
Sequence of Cathepsin D (P07339 65-412): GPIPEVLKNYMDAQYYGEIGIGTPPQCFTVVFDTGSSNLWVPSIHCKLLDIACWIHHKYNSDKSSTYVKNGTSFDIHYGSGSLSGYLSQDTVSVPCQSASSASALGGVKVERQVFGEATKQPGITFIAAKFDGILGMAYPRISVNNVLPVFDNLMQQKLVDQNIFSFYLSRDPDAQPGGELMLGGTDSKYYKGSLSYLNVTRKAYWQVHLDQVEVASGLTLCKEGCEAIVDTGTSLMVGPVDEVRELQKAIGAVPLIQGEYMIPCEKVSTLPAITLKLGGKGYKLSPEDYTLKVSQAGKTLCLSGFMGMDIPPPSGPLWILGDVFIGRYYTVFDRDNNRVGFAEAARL
Experimental: as §3

Renin = Renin (Homo sapiens, UniProt P00797); experiment: as above; assay type: biochemical; details: 5 min pre‐incubation
Sequence of Renin (P00797 67-406): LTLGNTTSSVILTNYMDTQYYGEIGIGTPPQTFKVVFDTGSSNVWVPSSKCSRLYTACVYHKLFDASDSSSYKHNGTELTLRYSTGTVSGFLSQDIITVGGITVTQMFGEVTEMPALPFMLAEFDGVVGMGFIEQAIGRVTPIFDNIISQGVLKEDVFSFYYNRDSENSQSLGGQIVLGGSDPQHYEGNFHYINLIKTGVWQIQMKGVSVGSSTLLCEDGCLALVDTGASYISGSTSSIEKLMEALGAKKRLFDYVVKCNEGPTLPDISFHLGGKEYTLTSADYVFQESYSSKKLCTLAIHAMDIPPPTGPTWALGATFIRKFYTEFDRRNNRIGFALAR
Experimental: as §3

[4] = test system: plasma prekallikrein (PK); experiment: phase 1: capillary immunoassay of PK in DXS‐stimulated plasma after oral KVD900; assay type: in vivo, human; details: healthy volunteers, 600 mg oral
Experimental: as §2, §1

FXIIa = FXIIa (Homo sapiens, UniProt P00748); experiment: isolated enzyme kinetic fluorogenic substrate IC50 assay; assay type: biochemical; details: 5 min pre‐incubation
Sequence of FXIIa (P00748 373-615 limits assumed): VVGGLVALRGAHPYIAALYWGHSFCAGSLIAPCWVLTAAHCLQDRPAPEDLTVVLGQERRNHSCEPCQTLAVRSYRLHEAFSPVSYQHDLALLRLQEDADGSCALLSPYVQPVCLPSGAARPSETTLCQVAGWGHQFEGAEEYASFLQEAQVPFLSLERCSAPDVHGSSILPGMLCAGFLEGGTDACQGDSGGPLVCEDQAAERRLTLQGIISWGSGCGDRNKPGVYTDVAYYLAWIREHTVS
Experimental: as §3

Plasmin = Plasmin (Homo sapiens, UniProt P00747); experiment: as above; assay type: biochemical; details: 5 min pre‐incubation
Sequence of Plasmin (P00747 581-810 limits assumed): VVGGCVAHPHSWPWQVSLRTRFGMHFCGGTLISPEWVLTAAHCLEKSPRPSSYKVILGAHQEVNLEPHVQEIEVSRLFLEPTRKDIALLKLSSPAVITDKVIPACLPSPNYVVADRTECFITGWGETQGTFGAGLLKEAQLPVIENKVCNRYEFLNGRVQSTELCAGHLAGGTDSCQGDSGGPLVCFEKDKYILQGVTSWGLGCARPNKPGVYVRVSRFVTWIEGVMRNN
Sequence of Plasmin (P00747 97-580 partner limits assumed): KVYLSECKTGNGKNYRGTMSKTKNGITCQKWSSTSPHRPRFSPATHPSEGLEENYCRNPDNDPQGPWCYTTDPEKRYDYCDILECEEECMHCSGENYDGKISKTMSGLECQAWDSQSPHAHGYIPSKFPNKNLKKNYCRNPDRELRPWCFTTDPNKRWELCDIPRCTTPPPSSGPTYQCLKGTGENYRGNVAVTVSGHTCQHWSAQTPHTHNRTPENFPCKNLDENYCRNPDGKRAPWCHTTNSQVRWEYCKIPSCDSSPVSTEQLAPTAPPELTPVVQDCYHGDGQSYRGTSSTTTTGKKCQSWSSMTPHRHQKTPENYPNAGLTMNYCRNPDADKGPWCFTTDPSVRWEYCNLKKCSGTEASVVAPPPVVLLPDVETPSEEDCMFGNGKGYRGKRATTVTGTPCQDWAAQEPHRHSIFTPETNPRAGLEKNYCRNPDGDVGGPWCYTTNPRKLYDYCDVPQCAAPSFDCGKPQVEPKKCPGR
Experimental: as §3

[5] = molecular target: Tissue plasminogen activator (Homo sapiens, UniProt P00750); experiment: as above; assay type: biochemical; details: 5 min pre‐incubation
Experimental: as §3

Beta‐secretase 1 = Beta‐secretase 1 (Homo sapiens, UniProt P56817); experiment: as above; assay type: biochemical; details: 5 min pre‐incubation
Sequence of Beta‐secretase 1 (P56817 46-501): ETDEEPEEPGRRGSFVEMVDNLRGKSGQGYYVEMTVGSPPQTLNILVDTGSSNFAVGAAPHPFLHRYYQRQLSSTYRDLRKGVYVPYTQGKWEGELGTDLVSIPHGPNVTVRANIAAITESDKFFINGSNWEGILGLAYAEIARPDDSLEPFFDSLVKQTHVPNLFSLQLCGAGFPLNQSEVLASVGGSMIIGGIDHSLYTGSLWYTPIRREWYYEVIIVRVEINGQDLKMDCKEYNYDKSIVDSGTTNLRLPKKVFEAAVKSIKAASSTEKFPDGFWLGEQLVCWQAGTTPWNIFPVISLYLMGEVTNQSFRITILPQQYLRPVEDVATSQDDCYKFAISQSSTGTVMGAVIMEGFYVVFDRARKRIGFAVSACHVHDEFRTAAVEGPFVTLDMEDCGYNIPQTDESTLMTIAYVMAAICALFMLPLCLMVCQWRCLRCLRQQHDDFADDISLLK
Experimental: as §3

[6] = plasma protein binding, Rapid Equilibrium Dialysis; assay type: in vitro ADME; details: human, pH 7.4, control plasma, dialysed 5 h at 37°C, read-out: plasma protein binding (PPB) (converted)
Experimental: PKa enzyme activity was measured in human pooled plasma (control plasma, Affinity Biologicals) using H‐D‐Pro‐Phe‐Arg‐AFC. The KKS in plasma was stimulated by the addition of dextran sulphate 500 kDa (DXS; Sigma‐Aldrich). PKa activity in the plasma was estimated based on the maximum rate of fluorescence increase. […] Percent plasma protein binding (PPB %) was determined using Rapid Equilibrium Dialysis (Pierce RED technology, ThermoFisher Scientific). Compounds were spiked into control plasma (final concentration 5 μM) and dialysed against phosphate buffer (pH 7.4) for 5 h at 37°C. Samples were analysed using liquid chromatography‐tandem mass spectrometry to quantify the fraction of unbound compound.

Tissue kallikrein = Tissue kallikrein (Homo sapiens, UniProt P06870); experiment: isolated enzyme kinetic fluorogenic substrate IC50 assay; assay type: biochemical; details: 5 min pre‐incubation
Sequence of Tissue kallikrein (P06870 25-262): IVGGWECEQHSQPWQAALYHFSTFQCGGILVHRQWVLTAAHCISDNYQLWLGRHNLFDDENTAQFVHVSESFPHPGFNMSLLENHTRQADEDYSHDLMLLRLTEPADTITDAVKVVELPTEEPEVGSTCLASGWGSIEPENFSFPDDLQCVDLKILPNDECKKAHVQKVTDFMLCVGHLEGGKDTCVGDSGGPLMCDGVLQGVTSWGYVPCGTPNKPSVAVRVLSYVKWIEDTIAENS
Experimental: as §3

FXa = FXa (Homo sapiens, UniProt P00742); experiment: as above; assay type: biochemical; details: 5 min pre‐incubation
Sequence of FXa (P00742 235-488 limits assumed): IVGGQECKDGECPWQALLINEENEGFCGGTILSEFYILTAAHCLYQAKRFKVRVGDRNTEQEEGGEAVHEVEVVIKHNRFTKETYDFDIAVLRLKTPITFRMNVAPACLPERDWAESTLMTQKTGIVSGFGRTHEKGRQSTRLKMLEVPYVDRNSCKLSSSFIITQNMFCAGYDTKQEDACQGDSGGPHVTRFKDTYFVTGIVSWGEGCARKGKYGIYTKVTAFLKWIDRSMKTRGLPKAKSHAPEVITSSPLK
Sequence of FXa (P00742 41-179 partner limits assumed): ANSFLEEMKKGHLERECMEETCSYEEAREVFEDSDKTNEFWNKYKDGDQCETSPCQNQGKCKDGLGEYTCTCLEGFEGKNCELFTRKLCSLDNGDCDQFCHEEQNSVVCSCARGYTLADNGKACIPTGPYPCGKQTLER
Experimental: as §3

FXIa = FXIa (Homo sapiens, UniProt P03951); experiment: as above; assay type: biochemical; details: 5 min pre‐incubation
Sequence of FXIa (P03951 388-625 limits assumed): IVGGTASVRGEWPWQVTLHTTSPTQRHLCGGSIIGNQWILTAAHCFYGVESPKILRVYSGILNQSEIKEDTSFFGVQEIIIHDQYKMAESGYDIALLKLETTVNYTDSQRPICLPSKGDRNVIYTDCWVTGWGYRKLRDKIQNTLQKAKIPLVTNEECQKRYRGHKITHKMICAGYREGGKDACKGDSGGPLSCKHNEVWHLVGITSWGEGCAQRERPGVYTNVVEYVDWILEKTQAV
Sequence of FXIa (P03951 19-387 partner limits assumed): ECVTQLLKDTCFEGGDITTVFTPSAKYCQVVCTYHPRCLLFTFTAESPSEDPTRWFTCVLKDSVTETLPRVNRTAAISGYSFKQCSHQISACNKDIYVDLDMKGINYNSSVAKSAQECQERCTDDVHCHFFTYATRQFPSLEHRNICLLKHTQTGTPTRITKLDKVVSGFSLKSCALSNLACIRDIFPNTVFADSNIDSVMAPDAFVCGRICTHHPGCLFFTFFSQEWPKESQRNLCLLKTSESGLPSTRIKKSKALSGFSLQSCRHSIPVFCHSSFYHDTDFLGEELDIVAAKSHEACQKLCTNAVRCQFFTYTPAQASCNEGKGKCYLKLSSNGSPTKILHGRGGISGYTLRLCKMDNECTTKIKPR
Experimental: as §3

Trypsin = experiment: as above; assay type: biochemical, human; details: 5 min pre‐incubation
Experimental: as §3

FXII = experiment: phase 1: capillary immunoassay of FXII and FXIIa in DXS‐stimulated plasma after oral KVD900; assay type: in vivo, human; details: healthy volunteers, 600 mg oral
Experimental: as §2, §1

Thrombin = Thrombin (Homo sapiens, UniProt P00734); experiment: isolated enzyme kinetic fluorogenic substrate IC50 assay; assay type: biochemical; details: 5 min pre‐incubation
Experimental: as §3

HK cleavage [7] = experiment: phase 2: DXS‐stimulated HK cleavage assay in HAE plasma after oral KVD900; assay type: in vivo, human
Experimental: as §2, §1

PKa [8] = molecular target: T1, PKa; experiment: phase 2: DXS‐stimulated PKa activity in HAE plasma after oral KVD900; assay type: in vivo; details: HAE subjects (n = 12), 600 mg oral tablets; 45 min post‐dose
Cathepsin G = Cathepsin G (Homo sapiens, UniProt P08311); experiment: isolated enzyme kinetic fluorogenic substrate IC50 assay; assay type: biochemical; details: 5 min pre‐incubation
Sequence of Cathepsin G (P08311 21-255): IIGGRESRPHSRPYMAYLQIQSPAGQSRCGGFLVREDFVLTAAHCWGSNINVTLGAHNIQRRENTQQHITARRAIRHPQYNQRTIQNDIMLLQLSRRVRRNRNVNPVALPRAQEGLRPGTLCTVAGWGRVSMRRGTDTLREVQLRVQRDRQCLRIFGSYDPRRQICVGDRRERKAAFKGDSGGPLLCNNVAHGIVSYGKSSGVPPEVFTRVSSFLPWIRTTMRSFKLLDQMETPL
Experimental: as §3

PKa [9] = test system: PKa; parameters: method as in PMID 7692967; details: cited from earlier work
[10] = six HAE patients, 600 mg oral tablets, 15 min through 4 h post‐dose

Question: Which results are given for COCc1nn(Cc2ccc(Cn3ccccc3=O)cc2)cc1C(=O)NCc1nccc(OC)c1F [KVD900]?
Answer: IC50 (Tryptase): > 10 µM; inhibition at 600 mg (PKa [1]; 1 h post‐dose): > 97%; inhibition at 600 mg (PKa [1]; 4 h post‐dose): > 97%; inhibition at 600 mg (PKa [1]; 6 h post‐dose): > 90%; inhibition at 600 mg (PKa [1]; 8 h post‐dose): > 83%; DXS‐stimulated generation of cHK (PKa‐mediated HK cleavage; 300 nM): fully inhibited; DXS‐stimulated generation of cHK (PKa‐mediated HK cleavage; 1000 nM): fully inhibited; IC50 (PKa‐mediated HK cleavage; control plasma, 15 min pre‐treatment, 6.25 µg/ml DXS on ice 17 min, read-out: IC50, protection of HK from DXS‐stimulated depletion): ~0.2 µM; IC50 (FVIIa): > 10 µM; Cmax [2]: 6570 ng/mL; Tmax [2]: 1.2 h; time for which DXS‐stimulated generation of cHK was not detectable (HK cleavage [3]): at least 6 h; cHK levels in DXS‐stimulated plasma (HK cleavage [3]; healthy volunteers, 1, 6 and 8 h post‐dose): not significantly increased compared with pre‐dose without DXS; HK remaining after DXS‐stimulation (HK cleavage [3]; healthy volunteers, 1 to 8 hours post‐dose): > 65%; IC50 (Cathepsin D): > 10 µM; IC50 (Renin): > 10 µM; PK after DXS‐stimulation, % of unstimulated plasma ([4]; 1 h post‐dose): 82.7 ± 4.4%; PK after DXS‐stimulation, % of unstimulated plasma ([4]; 6 h post‐dose): 87.0± 4.1%; DXS‐stimulated decrease in PK ([4]; later time points (≥8 h)): comparable to the PK decrease observed in pre‐dose samples; IC50 (FXIIa): > 40 µM; IC50 (Plasmin): > 40 µM; IC50 [5]: > 10 µM; IC50 (Beta‐secretase 1): > 10 µM; fraction unbound at 5 h, 5 μM [6]: 0.23; IC50 (Tissue kallikrein): > 10 µM; IC50 (FXa): > 10 µM; IC50 (FXIa): > 40 µM; IC50 (Trypsin): > 40 µM; FXII protection in DXS‐stimulated plasma compared with pre‐dose (FXII; 1 and 6 h post‐dose): non‐significant; reduction of DXS‐stimulated generation of FXIIa compared with pre‐dose (FXII; 1 h post‐dose): > 90%; reduction of DXS‐stimulated generation of FXIIa compared with pre‐dose (FXII; 6 h post‐dose): > 90%; reduction of DXS‐stimulated generation of FXIIa compared with pre‐dose (FXII; 8 h post‐dose): > 90%; IC50 (Thrombin): > 40 µM; time post‐dose from which inhibition of HK cleavage (and PKa activity) is observed (HK cleavage [7]; 600 mg oral): 15 min; cHK levels in DXS‐stimulated plasma (HK cleavage [7]; [10]): comparable with unstimulated plasma; protection from DXS‐stimulated depletion of HK (HK cleavage [7]; [10]): strongly protected; inhibition at 600 mg (PKa [8]): ≥ 95%; IC50 (Cathepsin G): > 10 µM

B1: DX‐2930: PKa inhibitor DX‐2930 (lanadelumab), approved treatment for HAE (antibody, chains of the INN, looked up, V domains shown)
VH: EVQLLESGGGLVQPGGSLRLSCAASGFTFSHYIMMWVRQAPGKGLEWVSGIYSSGGITVYADSVKGRFTISRDNSKNTLYLQMNSLRAEDTAVYYCAYRRIGVPRRDEFDIWGQGTMVTVSS
VL: DIQMTQSPSTLSASVGDRVTITCRASQSISSWLAWYQQKPGKAPKLLIYKASTLESGVPSRFSGSGSGTEFTLTISSLQPDDFATYYCQQYNTYWTFGQGTKVEIK
Question: With B1 as the molecule, how does the “reported Kon for PKa” value (PKa [9]) read?
Answer: The value was 3.4e+06 M⁻¹ s⁻¹.

B2: C1‐INH: serine protease inhibitor (serpin) that covalently binds and inactivates PKa and FXIIa (protein, UniProt P05155 23-500, looked up)
Plasma protease C1 inhibitor: NPNATSSSSQDPESLQDRGEGKVATTVISKMLFVEPILEVSSLPTTNSTTNSATKITANTTDEPTTQPTTEPTTQPTIQPTQPTTQLPTDSPTQPTTGSFCPGPVTLCSDLESHSTEAVLGDALVDFSLKLYHAFSAMKKVETNMAFSPFSIASLLTQVLLGAGENTKTNLESILSYPKDFTCVHQALKGFTTKGVTSVSQIFHSPDLAIRDTFVNASRTLYSSSPRVLSNNSDANLELINTWVAKNTNNKISRLLDSLPSDTRLVLLNAIYLSAKWKTTFDPKKTRMEPFHFKNSVIKVPMMNSKKYPVAHFIDQTLKAKVGQLQLSHNLSLVILVPQNLKHRLEDMEQALSPSVFKAIMEKLEMSKFQPTLLTLPRIKVTTSQDMLSIMEKLEFFDFSYDLNLCGLTEDPDLQVSAMQHQTVLELTETGVEAAAASAISVARTLLVFEVQQPFLFVLWDQQHKFPVFMGRVYDPRA
Question: Which “reported Kon for PKa” value (PKa [9]) does the source give for B2 here?
Answer: Its value is 17000 M⁻¹ s⁻¹.
